Patent US11497751B2, “Modulators of Rho-associated protein kinase” (Redx Pharma PLC, priority 2018, dated 2022)
Counter-ions that a name gives are not always drawn.

These molecules were tested against T1, N-terminal 6His-tagged ROCK2 catalytic domain 11-552 (Homo sapiens, UniProt O75116) (assay: ROCK2 binding activity: ROCK2 inhibition, ADP-Glo Kinase Assay). Conditions: 1.25 nM ROCK2, 100 μM long S6 peptide, 20 μM ATP; 1 hour pre-incubation; read-out: ADP-Glo kinase activity assay ROCK2 Category.
T1 construct: N-terminal 6His-tagged ROCK2 catalytic domain 11-552; 6His (N); purchased Dundee University, UK; host or cells: baculovirus expression system
Type: biochemical
Experimental: Assay for ROCK2 inhibition was performed using the protein construct N-terminal 6His-tagged ROCK2 catalytic domain 11-552 (Dundee University, UK). Protein was purified from a baculovirus expression system. Long S6 peptide ([…]) was used as substrate. Kinase reactions were carried out in 15 μl volume in a 96-well plate (black, half area) using 1.25 nM constitutively active ROCK2 kinase, 100 μM long S6 peptide, 20 μM ATP and test compound in DMSO (or DMSO only for controls). The final concentration of DMSO was 1%. Assay buffer was 50 mM HEPES pH 7.5 supplemented with 0.2 mM EDTA, 10 mM magnesium acetate, 0.01% Tween-20, 1 mM DTT and 0.01% BSA. Test compounds were pre-incubated with ROCK2 kinase for 1 hour before addition of ATP and long S6 peptide. After incubation for a further 1 hour, the amount of ADP produced was measured using ADP-Glo Kinase Assay (Promega) as per manufacturer's instructions. The luminescence was measured on a PHERAstar FS (BMG Labtech). The concentration of test compound required to inhibit ADP production by 50% (the IC50) was calculated using a four-parameter logistic function with software by Dotmatics.
The category “+” refers to compounds with a ROCK2 IC50 value of >10 μM. The category “++” refers to compounds with a ROCK2 IC50 value of 10 to 3 μM. The category “+++” refers to compounds with a ROCK2 IC50 value of 3 to 0.3 μM. The category “++++” refers to compounds with a ROCK2 IC50 value of <0.3 μM.

T1 sequence (O75116 11-552): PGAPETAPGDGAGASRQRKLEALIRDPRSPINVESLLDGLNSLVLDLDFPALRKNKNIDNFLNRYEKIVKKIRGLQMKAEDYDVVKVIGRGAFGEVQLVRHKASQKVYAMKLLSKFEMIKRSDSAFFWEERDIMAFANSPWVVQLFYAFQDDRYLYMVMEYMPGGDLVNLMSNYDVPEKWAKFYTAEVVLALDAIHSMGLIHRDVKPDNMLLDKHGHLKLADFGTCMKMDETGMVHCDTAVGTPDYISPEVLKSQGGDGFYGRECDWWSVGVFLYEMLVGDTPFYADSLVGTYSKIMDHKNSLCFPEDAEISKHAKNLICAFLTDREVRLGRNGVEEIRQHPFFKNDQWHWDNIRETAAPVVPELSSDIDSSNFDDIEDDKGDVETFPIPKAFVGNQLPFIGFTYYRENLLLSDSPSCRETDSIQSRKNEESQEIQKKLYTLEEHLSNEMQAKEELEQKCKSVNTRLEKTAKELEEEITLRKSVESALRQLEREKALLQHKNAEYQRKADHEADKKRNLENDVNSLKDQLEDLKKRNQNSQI

IC50	Compound
< 300 nM	CC(C)NC(=O)COc1ccc(-c2nnc(Nc3ccc4[nH]ncc4c3)[nH]2)cc1Cl [Example 38]
300 to 3000 nM	Oc1ccc(-c2nnc(Nc3ccc4[nH]ncc4c3)[nH]2)cc1 [Example 39]
300 to 3000 nM	COc1cc(-c2nnc(Nc3ccc4[nH]ncc4c3)[nH]2)ccc1OCc1nnc(C)o1 [Example 40]
3000 to 10000 nM	CC(C)NC(=O)NCc1ccc(-c2nnc(Nc3ccc4[nH]ncc4c3)[nH]2)cc1 [Example 41]
< 300 nM	CCc1cc(-c2nnc(Nc3ccc4[nH]ncc4c3)[nH]2)ccc1OCC(=O)NC(C)C [Example 42]
< 300 nM	CCNC(=O)c1ccc(-c2nc(Nc3ccc4[nH]ncc4c3Cl)n(C)n2)cc1F [Example 43, 4-[5-[(4-chloro-1H-indazol-5-yl)amino]-1-methyl-1,2,4-triazol-3-yl]-N-ethyl-2-fluoro-benzamide]
< 300 nM	COc1cc(-c2nc(Nc3ccc4[nH]ncc4c3)n(C)n2)ccc1OCC(=O)NC1CNC1 [Example 45]
> 10000 nM	COc1cc(-c2nc(N(C)c3ccc4[nH]ncc4c3)n(C)n2)ccc1OCC(=O)NC(C)C [Example 46]
< 300 nM	CN1CCc2cc(-c3nc(Nc4ccc5[nH]ncc5c4)n(C)n3)ccc2C1=O [Example 47]
< 300 nM	COc1cc(-c2nc(Nc3ccc4[nH]ncc4c3Cl)n(C)n2)ccc1OCC(=O)NC1CNC1 [Example 48]
< 300 nM	COc1cc(-c2nc(Nc3ccc4[nH]ncc4c3Cl)n(C)n2)ccc1OCC(=O)NC1CCNC1 (stereo not drawn) [Example 49]
< 300 nM	COc1cc(-c2nc(Nc3ccc4[nH]ncc4c3Cl)n(C)n2)ccc1OCC(=O)NC1(CO)CCCC1 [Example 50]
< 300 nM	COc1cc(-c2nc(Nc3ccc4[nH]ncc4c3Cl)n(C)n2)ccc1OCC(=O)NC1CCOC1 (stereo not drawn) [Example 51]
300 to 3000 nM	CC(C)NC(=O)COc1ccc(-c2nc(Nc3ccc4[nH]ncc4c3Cl)n(C)n2)cc1N1CCOCC1 [Example 52]
< 300 nM	CC(C)NC(=O)N1CCc2cc(-c3nc(Nc4ccc5[nH]ncc5c4Cl)n(C)n3)ccc2C1 [Example 54]
< 300 nM	COC(=O)c1ccc(-c2nc(Nc3ccc4[nH]ncc4c3Cl)n(C)n2)cc1 [Example 56]
300 to 3000 nM	CNC(=O)Cc1ccc(-c2nc(Nc3ccc4[nH]ncc4c3Cl)n(C)n2)cc1OC [Example 57]

IC50	Compound
< 300 nM	CC(C)NC(=O)CN1CCOc2cc(-c3nc(Nc4ccc5[nH]ncc5c4Cl)n(C)n3)ccc21 [Example 58]
300 to 3000 nM	Cn1nc(-c2cnn(Cc3ccccc3)c2)nc1Nc1ccc2[nH]ncc2c1Cl [Example 60]
300 to 3000 nM	Cn1nc(-c2ccc(C(=O)N3CCOCC3)cc2)nc1Nc1ccc2[nH]ncc2c1Cl [Example 61]
< 300 nM	CNC(=O)c1ccc(-c2nc(Nc3ccc4[nH]ncc4c3Cl)n(C)n2)cc1 [Example 62]
< 300 nM	COCc1ccc(-c2nc(Nc3ccc4[nH]ncc4c3Cl)n(C)n2)cc1 [Example 63]
< 300 nM	COc1cc(-c2nc(Nc3ccc4[nH]ncc4c3Cl)n(C)n2)ccc1OCC(=O)NCCN(C)C [Example 64]
< 300 nM	Cn1nc(-c2ccc3c(c2)OCCC3=O)nc1Nc1ccc2[nH]ncc2c1Cl [Example 66]
< 300 nM	COc1cc(-c2nc(Nc3ccc4[nH]ncc4c3Cl)n(C)n2)ccc1OCC(=O)NC(C)C [Example 68]
< 300 nM	Cn1nc(-c2cccc(N3CCOCC3)c2)nc1Nc1ccc2[nH]ncc2c1Cl [Example 69]
300 to 3000 nM	Cn1nc(-c2ccc(N)nc2)nc1Nc1ccc2[nH]ncc2c1Cl [Example 70]
< 300 nM	CNC(=O)Nc1ccc(-c2nc(Nc3ccc4[nH]ncc4c3Cl)n(C)n2)cc1OC [Example 71]
300 to 3000 nM	Cn1nc(-c2ccc3c(c2)OCCO3)nc1Nc1ccc2[nH]ncc2c1Cl [Example 72]
300 to 3000 nM	CC(=O)NCc1ccc(-c2nc(Nc3ccc4[nH]ncc4c3Cl)n(C)n2)cc1 [Example 73]
< 300 nM	Cn1nc(-c2cccc(CNS(C)(=O)=O)c2)nc1Nc1ccc2[nH]ncc2c1Cl [Example 75]
300 to 3000 nM	Cn1nc(-c2cncnc2)nc1Nc1ccc2[nH]ncc2c1Cl [Example 76]
< 300 nM	COc1ccc(-c2nc(Nc3ccc4[nH]ncc4c3Cl)n(C)n2)cc1OC [Example 77]

The remaining lines, values behind:

Compound	IC50
COc1ccc(-c2nnc(Nc3ccc4[nH]ncc4c3)[nH]2)cc1 [Example 1, N-[5-(4-Methoxyphenyl)-4H-1,2,4-triazol-3-yl]-1H-indazol-5-amine dihydrochloride]	300 to 3000 nM
COc1cccc(-c2nnc(Nc3ccc4[nH]ncc4c3)[nH]2)c1 [Example 2]	300 to 3000 nM
COc1cc(OC)cc(-c2nnc(Nc3ccc4[nH]ncc4c3)[nH]2)c1 [Example 3]	300 to 3000 nM
COc1ccccc1-c1nnc(Nc2ccc3[nH]ncc3c2)[nH]1 [Example 4]	> 10000 nM
COc1ccc(-c2nnc(Nc3ccc4[nH]nc(C)c4c3)[nH]2)cc1 [Example 5]	3000 to 10000 nM
CC(C)NC(=O)COc1cccc(-c2nnc(Nc3ccc4[nH]ncc4c3)[nH]2)c1 [Example 6]	< 300 nM
CC(C)NC(=O)COc1ccc(-c2nnc(Nc3ccc4[nH]ncc4c3)[nH]2)cc1 [Example 7]	< 300 nM
COc1cc(-c2nnc(Nc3ccc4[nH]ncc4c3)[nH]2)ccc1OCC(=O)NC(C)C [Example 8]	< 300 nM
CNC(=O)COc1ccc(-c2nnc(Nc3ccc4[nH]ncc4c3)[nH]2)cc1OC [Example 9]	300 to 3000 nM
Cc1cc(-c2nnc(Nc3ccc4[nH]ncc4c3)[nH]2)ccc1OCC(=O)NC(C)C [Example 10]	< 300 nM
CC(C)NC(=O)COc1ccc(-c2nc(Nc3ccc4[nH]ncc4c3)n[nH]2)cc1F [Example 12, 2-[2-fluoro-4-[5-(1H-indazol-5-ylamino)-4H-1,2,4-triazol-3-yl]phenoxy]-N-isopropyl-acetamide]	< 300 nM
c1ccc(COc2ccc(-c3nnc(Nc4ccc5[nH]ncc5c4)[nH]3)cc2)cc1 [Example 13]	300 to 3000 nM
CC(C)NC(=O)COc1ccc(-c2nnc(Nc3ccc4[nH]ncc4c3)[nH]2)cc1C#N [Example 14]	< 300 nM
CC(C)NC(=O)COc1ccc(-c2nnc(Nc3ccc4[nH]ncc4c3)[nH]2)cc1CN [Example 15]	300 to 3000 nM
CC(C)NC(=O)Cn1cc(-c2nnc(Nc3ccc4[nH]ncc4c3)[nH]2)ccc1=O [Example 16]	300 to 3000 nM
COC(=O)COc1ccc(-c2nnc(Nc3ccc4[nH]ncc4c3)[nH]2)cc1 [Example 17]	< 300 nM
CC(C)NC(=O)C(C)Oc1ccc(-c2nnc(Nc3ccc4[nH]ncc4c3)[nH]2)cc1 (stereo not drawn) [Example 18]	300 to 3000 nM
CC(C)NC(=O)C(C)(C)Oc1ccc(-c2nnc(Nc3ccc4[nH]ncc4c3)[nH]2)cc1 [Example 19]	300 to 3000 nM

Compound	IC50
CC(C)NC(=O)CCc1ccc(-c2nnc(Nc3ccc4[nH]ncc4c3)[nH]2)cc1 [Example 20]	300 to 3000 nM
CC(C)NC(=O)CCOc1ccc(-c2nnc(Nc3ccc4[nH]ncc4c3)[nH]2)cc1 [Example 21]	300 to 3000 nM
NCCCOc1ccc(-c2nnc(Nc3ccc4[nH]ncc4c3)[nH]2)cc1 [Example 22]	300 to 3000 nM
CC(C)C(=O)NCCOc1ccc(-c2nnc(Nc3ccc4[nH]ncc4c3)[nH]2)cc1 [Example 23]	300 to 3000 nM
NCCOc1ccc(-c2nnc(Nc3ccc4[nH]ncc4c3)[nH]2)cc1 [Example 24]	300 to 3000 nM
CC(C)NC(=O)COc1ccc(-c2nnc(Nc3ccc4[nH]ncc4c3)[nH]2)c(F)c1 [Example 25]	300 to 3000 nM
Cc1cc(OCC(=O)NC(C)C)ccc1-c1nnc(Nc2ccc3[nH]ncc3c2)[nH]1 [Example 26]	< 300 nM
COc1cc(OCC(=O)NC(C)C)ccc1-c1nnc(Nc2ccc3[nH]ncc3c2)[nH]1 [Example 27]	300 to 3000 nM
CC(C)NC(=O)Cn1ccc(-c2nnc(Nc3ccc4[nH]ncc4c3)[nH]2)cc1=O [Example 28]	3000 to 10000 nM
CC(C)NC(=O)COc1ccc(-c2nnc(Nc3ccc4[nH]ncc4c3)[nH]2)cn1 [Example 29]	300 to 3000 nM
CC(C)NC(=O)COc1ccc(-c2nnc(Nc3ccc4[nH]ncc4c3Cl)[nH]2)cc1 [Example 30]	< 300 nM
O=C(O)COc1ccc(-c2nnc(Nc3ccc4[nH]ncc4c3)[nH]2)cc1 [Example 31]	300 to 3000 nM
CC(C)C(=O)NCCCOc1ccc(-c2nnc(Nc3ccc4[nH]ncc4c3)[nH]2)cc1 [Example 32]	< 300 nM
CC(C)NC(=O)CCn1ccc(-c2nnc(Nc3ccc4[nH]ncc4c3)[nH]2)cc1=O [Example 33]	> 10000 nM
CC(C)NC(=O)OCc1ccc(-c2nnc(Nc3ccc4[nH]ncc4c3)[nH]2)cc1 [Example 34]	< 300 nM
CC(C)NC(=O)CCn1cc(-c2nnc(Nc3ccc4[nH]ncc4c3)[nH]2)ccc1=O [Example 35]	300 to 3000 nM
CC(C)NC(=O)COc1c(F)cc(-c2nnc(Nc3ccc4[nH]ncc4c3)[nH]2)cc1F [Example 36]	300 to 3000 nM
CS(=O)(=O)NC(=O)COc1ccc(-c2nnc(Nc3ccc4[nH]ncc4c3)[nH]2)cc1 [Example 37]	300 to 3000 nM
